These results are taken from PMC6272869, “Simultaneous Determination of Multiple Components in Guanjiekang in Rat Plasma via the UPLC–MS/MS Method and Its Application in Pharmacokinetic Study” (Molecules, 2016).

The structures appear in SMILES notation.

As usually defined, the AUC(0-inf) is total exposure, with the tail of the curve extrapolated. Broadly, the AUC(0-t) is exposure summed from dosing to a finite time, without extrapolation to infinity. Read a low AUC(0-t) as low exposure.

Data set [1] deals with toll-like receptor 4 (TLR4)/MD2 complex. Also on record: method as in PMID 22422925. The following applies: cited from earlier work.
The test system of data set [2] is NLRP3-activated ASC oligomerization. More on the design: method as in PMID 25210146. The following applies: cited from earlier work.
The nature of data set [3]: Pharmacokinetic study in rats after single oral administration of GJK (UPLC-MS/MS of plasma). It counts as in vivo, Sprague–Dawley rats. The following applies: Sprague-Dawley, in vivo, single oral GJK 24 g/kg. As for the experimental part:
Chromatographic analyses were performed using an Agilent 1290 series UPLC system (Agilent Technologies, Santa Clara, CA, USA) equipped with a binary pump, an online degasser, an auto plate sampler, and a thermostatically controlled column compartment. The determination was carried out at 30 °C on a Waters Acquity UPLC C18 column (100 mm × 2.1 mm, […], Waters, Milford, MA, USA). The mobile phase consisted of 0.1% formic acid (A) and acetonitrile (B) using a gradient elution of 10%–34% B at 0–6 min, 34%–80% B at 6–10 min, 80% B at 10–12 min, 10% B at 12–15 min, and the re-equilibration time of gradient elution was 1 min. The sample injection volume was 5 µL, and the flow rate was 0.35 mL/min. The MS detection was performed using an Agilent 6460 Triple Quadrupole MS (Agilent Technologies) equipped with an electrospray ionization (ESI) source. […] Other parameters were as follows: drying gas (N2) flow rate, 11.0 L/min.
Plasma samples (50 µL) were thawed on ice and mixed with 200 µL of IS (20.0 ng/mL) via vortexing for 1 min. Then, the mixture was centrifuged at 13,500 rpm for 15 min to separate the precipitated protein at 4 °C. The supernatant was transferred into a clean Eppendorf tube and evaporated to dryness under a stream of nitrogen. The residues were reconstituted with 50 µL of water–methanol (50:50, v/v), vortexed and centrifuged at 13,500 rpm for 15 min. Then, the supernatants were injected into the UPLC–MS/MS for analysis.
Sprague–Dawley rats (200–250 g) were obtained from the Center of the Chinese University of Hong Kong and were kept in an environmentally controlled room (temperature: 25 ± 2 °C, humidity: 50% ± 5%, 12 h dark-light cycle) for at least 7 days before the experiments. Prior to the experiments, the animals were fasted for 24 h with water ad libitum. All protocols of animal experiments were approved in accordance with the regulations of the Experimental Animal Administration issued by the Macau University of Science and Technology.
The blood samples (100 µL) were individually collected from the caudal vein into heparinized tubes before administration, and 5, 10, 15, 30, 45, 60, 90, 120, 240, 360, 480, 720 and 1440 min after administration, and then immediately centrifuged at 4500 rpm for 15 min. […] The main PK parameters, including the maximum plasma concentration (Cmax), time to reach Cmax (Tmax), half-life time (T1/2), area under the curve (AUC 0–t and AUC 0–∞) and mean residence time (MRT), were calculated via the non-compartment model using the pharmacokinetic software, PK Solutions 2.0 (Summit Co., Montrose, CO, USA).

The test system of data set [4] is NLRP3-dependent interleukin (IL)-1β production. Also on record: method as in PMID 25210146. The conditions noted are these: cited from earlier work.
Data set [5] can be described thus: Stability of the analytes in rat plasma under different storage conditions (QC samples). It counts as in vitro ADME. The following applies: n = 3; for Remaining (%) / remaining at 4 h / remaining at 360 h: rat plasma; for Remaining (%): freeze–thaw cycles (three); for remaining at 24 h / remaining at 4 h / remaining at 360 h: rat, plasma; for remaining at 24 h: extracted plasma QC samples in auto-sampler, 4 °C for 24 h; for remaining at 4 h: 25 °C for 4 h; for remaining at 360 h: at −70 °C for 15 days. As for the experimental part:
The stability of the seven compounds in rat plasma was assessed by analyzing the QC samples at three concentrations under different sample storage conditions and processing procedures. Short-term stability was assessed by analyzing the QC samples that were kept at room temperature for 4 h, which exceeded the routine sample preparation time. […] Freeze-thaw stability was investigated after three freeze (−40 °C) and thaw (room temperature) cycles. Post-preparation stability was assessed by analyzing the extracted QC samples that were kept in the auto-sampler at 4 °C for […]. All stability testing QC samples were evaluated using the calibration curve of the freshly prepared samples.

Consider `O=C(/C=C/c1ccc(O)cc1)c1ccc(O)cc1O` [Isoliquiritigenin, isoliquiritigenin], for which the “Effect on LPS-induced TLR4/MD2 complex signaling and NF-κB activation” value in data set [1] is “block lipopolysaccharides (LPS)-induced toll-like receptor 4 (TLR4)/MD2 complex signaling and nuclear factor NF-κB activation”. Further, the “Effect on NLRP3-activated ASC oligomerization” value in data set [2] is “inhibit NACHT, LRR and PYD domains-containing protein 3 (NLRP3)-activated apoptosis-associated speck-like protein (ASC) oligomerization”. Further, the total exposure AUC(0-inf) in data set [3] (rat plasma, n = 6, AUC0–t extrapolated to infinity, mean ± S.D.) was 2750 ng·h/mL. The half-life in data set [3] (rat plasma, n = 6, mean ± S.D., non-compartmental, read-out: T1/2z (terminal elimination half-life)) stood at 4.88 ± 0.8 h. Further, the Cmax in data set [3] (rat plasma, n = 6, mean ± S.D., read-out: Cmax (maximum plasma concentration)) amounted to 337 ± 103 ng/mL. In data set [3] (rat plasma, n = 6, mean ± S.D., read-out: MRT0–t (mean residence time) (converted)), the MRT last was 7.75 h. This compound gave an AUC(0-t) in data set [3] (rat plasma, n = 6, zero to last sampling time, mean ± S.D.) of 2650 ng·h/mL. Moreover, the Tmax in data set [3] (rat, po, 24 g/kg, n = 6, median (minimum, maximum), read-out: Tmax (time to reach peak concentration) (converted)) was 3 h. Further, in data set [4] (at both the priming step and the activation step), the “Concentration that inhibits NLRP3-dependent IL-1β production” value is given as 1 µM. Besides, the “Concentration that inhibits NLRP3-dependent IL-1β production, converted to mass concentration” value in data set [4] (printed as equal to 1 µM) is 256 ng/mL. Further, in data set [5] (high QC concentration), the “Remaining (%)” value worked out at 105.2%, the fraction remaining at 24 h was 102%, the share remaining at 4 h was 103% and the amount remaining at 360 h amounted to 102%. Moreover, in data set [5] (low QC concentration), the “Remaining (%)” value stood at 106.3%, the share remaining at 24 h came to 94.6%, the amount remaining at 4 h was 102% and the fraction remaining at 360 h was 103%. In addition, in data set [5] (medium QC concentration), the “Remaining (%)” value came to 107.0%, the share remaining at 24 h stood at 102%, the share remaining at 4 h was found to be 103% and the fraction remaining at 360 h stood at 96.2%.
